Test results: patent US4208514A, “4(3H)-Oxobenzo-2,1,3-thiadiazine-2,2-dioxides” (The Dow Chemical Company, priority 1976, dated 1980)

How the values were obtained:
Format in all cases: in vivo
Jimson Weed = assay: Selective post-emergent greenhouse test, Jimson Weed; conditions: post-emergence, 336 h, 2 weeks; for pest or weed control at 358.672 g/ha: 0.32 lbs/acre; for pest or weed control at 706.135 g/ha: 0.63 lbs/acre
Text: (§1) So as to illustrate clearly the phytotoxic properties of the various active ingredients of the present invention, a group of controlled greenhouse experiments is described below.
(§2) Various species of plants, both broadleaf weeds and valuable crops, were planted in beds of good agricultural soil in a greenhouse. After the plants had emerged and grown to a height of about 2-6 inches, a portion of the plants were sprayed with an aqueous mixture, made by mixing a selected active ingredient and emulsifier or dispersant with water to provide solution containing 250 or 125 ppm active ingredient, employing sufficient amounts of the treating composition to provide low post emergent application rates of about 0.63 or 0.32 pounds per acre. Other portions of the plants were left untreated to serve as controls. In each test the active ingredient was a 3-methylethyl-1H-2,1,3-benzothiadiazin-4(3H)-one-2,2-dioxide having a substituent in the one position according to the invention.
(§3) After a period of 2 weeks the selective effect of the test ingredient on the plants was evaluated by a comparison with the control group of plants.

Velvet Leaf [1] = assay: Selective post-emergent greenhouse test, Velvet Leaf; conditions: post-emergence, 336 h, 2 weeks; for pest or weed control at 358.672 g/ha: 0.32 lbs/acre; for pest or weed control at 706.135 g/ha: 0.63 lbs/acre
Text: as §1, §2, §3

Soybean = assay: Selective post-emergent greenhouse test, Soybean (crop injury); conditions: Glycine max, post-emergence, 336 h, 2 weeks, read-out: % Control Soybean; for plant injury at 358.672 g/ha: 0.32 lbs/acre; for plant injury at 706.135 g/ha: 0.63 lbs/acre
Text: as §1, §2, §3

Cotton = assay: Selective post-emergent greenhouse test, Cotton (crop injury); conditions: Gossypium hirsutum, post-emergence, 336 h, post-emergent, 2 weeks, crop, read-out: % Control Cotton; for plant injury at 358.672 g/ha: 0.32 lbs/acre; for plant injury at 706.135 g/ha: 0.63 lbs/acre
Text: as §1, §2, §3

Nutsedge = assay: General post-emergent herbicidal activity at 10 lbs/acre, Nutsedge; conditions: Cyperus, post-emergence, 336 h
Text: as §2, with “[…], […]” for “emulsifier or dispersant with water to provide solution containing 250 or 125 ppm active ingredient, employing sufficient amounts of the treating composition to provide low post emergent application rates of about 0.63 or 0.32 pounds per acre.”
as §3

Pig Weed = assay: General post-emergent herbicidal activity at 10 lbs/acre, Pig Weed; conditions: post-emergence, 336 h
Text: as §2, with “[…], […]” for “emulsifier or dispersant with water to provide solution containing 250 or 125 ppm active ingredient, employing sufficient amounts of the treating composition to provide low post emergent application rates of about 0.63 or 0.32 pounds per acre.”
as §3

Annual Morning Glory = assay: General post-emergent herbicidal activity at 10 lbs/acre, Annual Morning Glory; conditions: Ipomoea, post-emergence, 336 h
Text: as §2, with “[…], […]” for “emulsifier or dispersant with water to provide solution containing 250 or 125 ppm active ingredient, employing sufficient amounts of the treating composition to provide low post emergent application rates of about 0.63 or 0.32 pounds per acre.”
as §3

Velvet Leaf [2] = assay: General post-emergent herbicidal activity at 10 lbs/acre, Velvet Leaf; conditions: post-emergence, 336 h
Text: as §2, with “[…], […]” for “emulsifier or dispersant with water to provide solution containing 250 or 125 ppm active ingredient, employing sufficient amounts of the treating composition to provide low post emergent application rates of about 0.63 or 0.32 pounds per acre.”
as §3

Row | Compound | pest or weed control at 358.672 g/ha (Jimson Weed) | pest or weed control at 706.135 g/ha (Jimson Weed) | pest or weed control at 358.672 g/ha (Velvet Leaf [1]) | pest or weed control at 706.135 g/ha (Velvet Leaf [1]) | plant injury at 358.672 g/ha (Soybean) | plant injury at 706.135 g/ha (Soybean) | plant injury at 358.672 g/ha (Cotton) | plant injury at 706.135 g/ha (Cotton) | pest or weed control at 11208.5 g/ha (Nutsedge) | pest or weed control at 11208.5 g/ha (Pig Weed) | pest or weed control at 11208.5 g/ha (Annual Morning Glory) | pest or weed control at 11208.5 g/ha (Velvet Leaf [2])
1 | CC(=O)N1c2ccccc2C(=O)N(C(C)C)S1(=O)=O [COCH3, 1H-2,1,3-Benzothiadiazin-4(3H)-one: 1-acetyl-3-(1-methyl-ethyl)-; 2,2-dioxide] | 60% | 60% | 100% | 100% | 0% | 0% | 5% | 0% | 95% | 100% | 100% | 100%
2 | COC(=O)N1c2ccccc2C(=O)N(C(C)C)S1(=O)=O [CO2 CH3] | 100% | 100% | 100% | 100% | 0% | 0% | 0% | 10% | 50% | 100% | 100% | 100%
